The source of these data is patent US20140336463A1, “Rhinotopic therapy for the treatment of chronic rhinosinusitis biofilm disruption, treatment of mucosal granulation and sinus polyps” (priority 2009, published 2014).

The conditions of series [1]: prolonged intravenous use; cited from earlier work.
Series [2] concerns patients with refractory CRS. The series can be described thus: Part I prospective study, Rhinotopic therapy spray: Lund-Kennedy scores, clinical course, side effects. Type of series: in vivo. The source says: The first part is a prospective study that includes 20 patients with refractory CRS, treated in with Rhinotopic therapy spray at a tertiary rhinology fellowship-training program. The patients were placed on the rhinotopic protocol only after they failed extended standard medical therapy. The latter is defined, for the purpose of this study, as three or more repeated courses of different oral antibiotics along with nasal corticosteroids sprays and nasal saline rinses (each lasting at least 3 weeks), within a 6 month-period, along with oral corticosteroids when indicated (in case of significant polyposis or Samter's triad). Patients who failed extended medical therapy were given the option of revision sinus surgery or rhinotopic therapy; all 20 patients chose rhinotopic therapy and were consented accordingly. […]
CT scans were reviewed prior to treatment and evaluated following the Lund-Mackay radiologic scoring system (9). Clinical response to treatment was monitored using the Lund-Kennedy (LK) symptoms score and the LK endoscopic appearance score (9). […] The LK symptoms score evaluated nasal congestion and obstruction, headache, facial pain, alteration I the sense of smell, nasal discharge, and sneezing. The LK endoscopic appearance score evaluated the presence or absence of nasal polyps, edema, discharge, scarring, and crusting on each side of the nasal cavity. […]

As for `CN[C@H](CC(C)C)C(=O)N[C@H]1C(=O)N[C@@H](CC(N)=O)C(=O)N[C@H]2C(=O)N[C@H]3C(=O)N[C@H](C(=O)N[C@H](C(=O)O)c4cc(O)cc(O)c4-c4cc3ccc4O)[C@H](O)c3ccc(c(Cl)c3)Oc3cc2cc(c3O[C@@H]2O[C@H](CO)[C@@H](O)[C@H](O)[C@H]2O[C@H]2C[C@](C)(N)[C@H](O)[C@H](C)O2)Oc2ccc(cc2Cl)[C@H]1O` [Vancomycin], the side effects entry in series [1] is “toxicity to the kidneys and the inner ear”. Further, in series [2] (nebulized, stopped the treatment and dropped out), the “patients who developed an allergic reaction (skin rash over the upper lip)” value is on record as “One”. As to `CC(C)(O/N=C(\C(=O)N[C@@H]1C(=O)N2C(C(=O)[O-])=C(C[n+]3ccccc3)CS[C@H]12)c1csc(N)n1)C(=O)O` [ceftazidine], in series [2] (intravenous, one patient, before the rhinotopic protocol), the clinical response result is on record as “improved transiently but their symptoms recurred”.
